This is an account of results in patent US6964983B2, “Compounds that modulate PPAR activity and methods for their preparation” (Warner-Lambert Company, LLC, priority 2002, dated 2005).

What is called melting point is the temperature of the solid-liquid transition.

A value given as a limit tells only on which side of the number the result lay.

One data set concerns hApoA1 transgenic mouse. The data set is described as follows: Lipid concentrations in the hApoA1 transgenic mouse. The following applies: 30 mg/kg/day, oral gavage. The class given is in vivo. How it is done: B. Effect of PPAR Modulators on Lipid and Human Apoprotein A1 Concentrations in the hApoA1 Transgenic Mouse
Mice, transgenic for human apoA1, were purchased from Jackson laboratories. All animals were allowed normal chow (Ralston-Purina) and water ad libitum in temperature controlled rooms, under a 12-h light, 12-h dark cycle beginning with lights on at 6 AM. During the treatment phase of the study the mice were dosed daily between 6 and 9 AM by oral gavage using a suspension vehicle of 1.5% carboxymethylcellulose plus 0.2 percent Tween-20 (CMC/Tween) containing the specified compounds. Control animals received vehicle alone. Vehicle volume represented 0.25 percent of body weight. Under anesthesia, tail blood was obtained weekly in the morning at the indicated days of study. At termination, tissue samples (liver, intestine, fat, and muscle) were taken to study effects on genes effecting lipid metabolism. Each of the compounds of the present invention that were tested effected a significant increase in HDL over the values observed for the control animals. […] For instance, Example 4 raised HDL-c 97% and lowered triglycerides 65% relative to the control population, Example 6 raised HDL-c 24% and lowered triglycerides 59% relative to the control population, and Example 3 raised HDL-c 9% and lowered triglycerides 70% relative to the control population.

The target of another data set is T1, hPPARβ (Homo sapiens, UniProt Q03181).
T1 sequence (Q03181 171-441 limits assumed): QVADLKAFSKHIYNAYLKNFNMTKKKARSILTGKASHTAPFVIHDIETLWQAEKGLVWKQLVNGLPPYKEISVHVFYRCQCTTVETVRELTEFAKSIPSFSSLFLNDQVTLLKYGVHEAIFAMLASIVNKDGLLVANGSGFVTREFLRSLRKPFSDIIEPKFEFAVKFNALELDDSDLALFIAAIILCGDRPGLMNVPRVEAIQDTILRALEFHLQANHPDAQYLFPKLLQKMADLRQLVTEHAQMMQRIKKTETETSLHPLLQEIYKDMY
In words: Transient transfection assay in HepG2 cells, Gal4-hPPARβ chimeric receptor, luciferase reporter. Particulars: Hep G2-hBeta EC50, 24 hours incubation; read-out: EC50β nM (Group). The class given is cell-based. The essentials: (§1)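 HepG2 cells were transiently co-transfected with Gal4-hPPARα or Gal4-hPPARβ chimeras, a UAS-E1B luciferase reporter and a β-gal normalisation plasmid. After re-plating, cells were treated with compound at 50 pM–50 μM for 24 h at 37°C. EC50 values were derived from luciferase read-out normalised to β-gal.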
Background: A reporter such as luciferase makes a cellular process visible.

Another data set addresses T2, hPPARα (Homo sapiens, UniProt Q07869).
T2 sequence (Q07869 200-468 limits assumed): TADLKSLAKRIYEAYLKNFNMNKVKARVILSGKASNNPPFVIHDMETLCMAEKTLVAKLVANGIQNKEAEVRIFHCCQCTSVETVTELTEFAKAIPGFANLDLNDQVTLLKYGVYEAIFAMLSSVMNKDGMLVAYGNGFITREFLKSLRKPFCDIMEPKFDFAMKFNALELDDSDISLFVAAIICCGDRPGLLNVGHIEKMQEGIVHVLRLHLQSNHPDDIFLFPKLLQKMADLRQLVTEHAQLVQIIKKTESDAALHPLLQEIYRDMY
In words: Transient transfection assay in HepG2 cells, Gal4-hPPARα chimeric receptor, luciferase reporter. The class given is cell-based. The following applies: Hep G2-hAlpha EC50, 24 hours incubation; read-out: EC50α nM (Group). The method, boiled down: as §1

Data set [1] has as its system diabetic cynomolgus monkeys. The data set is described as follows: Eight-week rising-dose treatment of diabetic (type II) cynomolgus monkeys. In kind it is in vivo. The following applies: for Exogenous Insulin Requirement / Leptin (plasma, ELISA): Diabetic Treated; for Diabetic Monkey Mean Body Weight: treated group (Txt). How it is done:
(§2) C. Effect of Compounds of the Invention on Insulin Resistant or Diabetic Cynomolgus Monkeys
Cynomolgus monkeys that were either insulin resistant or diabetic (type II) were treated for eight weeks with [5-Methoxy-2-methyl-4-(4′-trifluoromethyl-biphenyl-4-ylmethylsulfanyl)-phenoxy]-acetic acid in a rising dose fashion (0.1 to 1 mg/kg). Plasma was sampled bi-weekly and analyzed for glycemics and leptin. Body weight was also measured at various time points across the study. The diabetic monkey mean body weight data is presented in Table 2 and the insulin resistant monkey mean body weight data is presented in Table 3.
The amount of exogenous insulin the diabetic monkeys received to maintain proper glucose levels, the exogenous insulin requirement, is also presented in Table 4 as baseline values vs. 8-week treatment. […] A reduction in exogenous insulin requirements is a measure of improved insulin sensitivity and glucose control.

Data set [2] relates to insulin resistant cynomolgus monkeys. The data set is described as follows: Eight-week rising-dose treatment of insulin resistant cynomolgus monkeys. The class given is in vivo. The following applies: for Leptin (plasma, ELISA): Insulin Resistant Treated; for Insulin Resistant Monkey Mean Body Weight: treated group (Txt). How it is done:
as §2
Cynomolgus monkeys that were either insulin resistant or diabetic (type II) were treated for eight weeks with [5-Methoxy-2-methyl-4-(4′-trifluoromethyl-biphenyl-4-ylmethylsulfanyl)-phenoxy]-acetic acid in a rising dose fashion (0.1 to 1 mg/kg). Plasma was sampled bi-weekly and analyzed for glycemics and leptin. Body weight was also measured at various time points across the study. The diabetic monkey mean body weight data is presented in Table 2 and the insulin resistant monkey mean body weight data is presented in Table 3. […]
For orientation: ELISA stands for enzyme-linked immunosorbent assay.

Setting [3] is: Post-Treatment (8-week treatment).
Where [4] appears, read: 2 wk, rising dose 0.1 to 1 mg/kg.
Where [5] appears, read: 8 wk, rising dose 0.1 to 1 mg/kg.

On to `Cc1cc(SCc2ccc(-c3ccc(Cl)c(C(F)(F)F)c3)cc2)ccc1OCC(=O)O` [Example 6, [4-(4′-Chloro-3′-trifluoromethyl-biphenyl-4-ylmethylsulfanyl)-2-methyl-phenoxy]-acetic acid], for which, in the data set with hApoA1 transgenic mouse, the “lowered triglycerides relative to the control population” value stood at 59% and the “raised HDL-c relative to the control population” value was 24%.
Consider `Cc1cc(SCc2ccc(-c3ccc(C(F)(F)F)cc3)cc2)ccc1OCC(=O)O` [Example 3, [2-Methyl-4-(4′-trifluoromethyl-biphenyl-4-ylmethylsulfanyl)-phenoxy]-acetic acid], for which the melting point is 140 to 141 °C. In addition, the EC50 at hPPARβ was under 300 nM. For the same molecule, at hPPARα, the EC50 lay within 2000 to 5000 nM. In the data set on hApoA1 transgenic mouse, the “lowered triglycerides relative to the control population” value worked out at 70% and the “raised HDL-c relative to the control population” value is on record as 9%.
`COc1cc(OCC(=O)O)c(C)cc1SCc1ccc(-c2ccc(C(F)(F)F)cc2)cc1` [[5-Methoxy-2-methyl-4-(4′-trifluoromethyl-biphenyl-4-ylmethylsulfanyl)-phenoxy]-acetic acid]: the “Exogenous Insulin Requirement” value worked out at 18 ± 4 u/day in data set [1] (setting [3]) and 66 ± 16 u/day in data set [1] (Pre-Treatment (baseline)). Besides, the “Leptin (plasma, ELISA)” value worked out at 10.89 ± 2.7 ng/mL in data set [1] (setting [3]), 7.22 ± 0.93 ng/mL in data set [1] (Pre-Treatment (baseline)), 5.73 ± 2.14 ng/mL in data set [2] (setting [3]) and 7.33 ± 1.16 ng/mL in data set [2] (Pre-Treatment (baseline)). In addition, the “effect on plasma leptin values” in data set [1] (diabetic obese cynomolgus monkeys, treated vs control, baseline vs 8 weeks) was “lesser increase in plasma leptin values”; in data set [2] (insulin resistant obese cynomolgus monkeys, treated vs control, baseline vs 8 weeks), “lesser increase in plasma leptin values”. The Diabetic Monkey Mean Body Weight is 8.75 kg in data set [1] (setting [4]); 8.37 kg in data set [1] (5 wk, rising dose 0.1 to 1 mg/kg); 8.08 kg in data set [1] (7 wk, rising dose 0.1 to 1 mg/kg); 7.8 kg in data set [1] (setting [5]); 8.87 kg in data set [1] (Mean Baseline); 8.91 kg in data set [1] (−4 wk, before treatment). The molecule further had a Diabetic Monkey Mean Body Weight in data set [1] (−7 wk, before treatment) of 8.84 kg. The Insulin Resistant Monkey Mean Body Weight in data set [2] (setting [4]) is 5.26 kg; in data set [2] (4 wk, rising dose 0.1 to 1 mg/kg), 5.04 kg; in data set [2] (6 wk, rising dose 0.1 to 1 mg/kg) it was 4.91 kg; in data set [2] (setting [5]) it was 4.71 kg; in data set [2] (Mean Baseline) it was 5.29 kg; in data set [2] (−4 wk, before treatment), 5.32 kg. In addition, the Insulin Resistant Monkey Mean Body Weight in data set [2] (−7 wk, before treatment) is 5.25 kg.
In turn, `COc1cc(OCC(=O)O)c(C)cc1SCc1ccc(-c2ccc(C(F)(F)F)cc2)cc1` [Example 4, [5-Methoxy-2-methyl-4-(4′-trifluoromethyl-biphenyl-4-ylmethylsulfanyl)-phenoxy]-acetic acid] displayed a melting point of 170 to 171 °C. In addition, the EC50 at hPPARβ was under 300 nM. In addition, the EC50 at hPPARα was under 300 nM. In addition, in the data set on hApoA1 transgenic mouse, the “lowered triglycerides relative to the control population” value stood at 65% and the “raised HDL-c relative to the control population” value was 97%.
